Source: patent US5888994A, “Fluorinated Vitamin D3 analogs” (Hoffmann-La Roche Inc., priority 1997, dated 1999)

Columns and labels:
HL-60 cells = test: HL-60 cell differentiation (oxidative burst via NBT reduction); format: cell-based; conditions: Homo sapiens, 72 h, 3 days, NBT reduction at 540 nm, mean of 3 wells, read-out: ED50 (concentration leading to 50% of maximal differentiation achieved with 100-1000 nM calcitriol)
Procedure: The induction of differentiation of HL-60 cells was assayed by measuring their oxidative burst potential via the reduction of NBT (Nitrobluetetrazolium).
30,000 cells/90 μl of RPMI/FCS were seeded into flat-bottomed microtiter wells. 10 μl of vitamin D derivatives diluted in complete medium were added at the same time to yield final concentrations between 10^-11 and 10^-6 M (stock solutions of 10^-2 M in ethanol were kept at -20° C. and protected from light).
Values were expressed as percent of maximal differentiation achieved with 100-1000 nM calcitriol in the same experiment.

HaCaT cells = test: Inhibition of keratinocyte proliferation (3H-thymidine uptake, HaCaT); format: cell-based; conditions: HaCaT human keratinocyte line, 6 days of culture
Procedure: HaCaT cell line--The immortalized human cell line HaCaT was used. ^3 H-thymidine incorporation was measured in exponentially growing cultures after 6 days of culture in presence of the test compound.
Cell culture--HaCaT cells were cultured in Dulbecco's Modified Eagle Medium (DMEM) and Nutrient Mixture Ham's F12 (F12), 3:1 (v/v, ICN) containing 4.5 g/l glucose and supplemented with 10% fetal calf serum (Gibco, FCS), L-glutamine (Gibco, 2mM), penicillin (Gibco, 50 UI/ml), streptomycin (Gibco, 50 μg/ml), EGF (10 ng/ml), hydrocortisone (400 ng/ml), cholera toxin (8.5 ng/ml) and insulin (5 ng/ml). The cells were maintained in a humidified atmosphere containing 5% CO2 and 95% air and passaged every 3-4 days.
Inhibition of ^3 H-thymidine uptake--HaCaT cells (250 cells in complete culture medium) were seeded into 96-well culture dishes and incubated at 37° C. with 5% CO2 and 95% air for 6 days. Inhibitors, dissolved at 10× concentration in 1% ethanol, were added immediately at the beginning of the assay. ^3 H-thymidine (5 Ci/mmol, Amersham) was added at a concentration of 1 μCi/well and cells were pulse-labelled for the last 6 hours of the growth period. Cells were then trypsinized for 10 minutes at 37° C. under a vigorous agitation and harvested on to a 96-well GF/C filter plate (Uni Filter, Packard) using a Micro Mate 196 cell harvester (Packard). After drying at 40° C. under vacuum for 20-30 minutes, 2 μl of Micro Scint 0 scintillator (Packard) were added and the radioactivity bound to the filters was counted on a TOP COUNT (Packard).

sebaceous cells = test: Inhibition of human sebocyte proliferation in vitro; format: cell-based; conditions: tested at 10^-6, 10^-7 and 10^-8 M, vs vehicle-treated culture, read-out: ED50 (amount of compound necessary to inhibit the proliferation of sebaceous cells by 50%)
Procedure: Sebaceous cells were isolated from adult human sebaceous glands by a combination of enzymatic and mechanical methods (Doran et al., Characterization of Human Cells In Vitro, J. Invest. Dermatol. 96:34-8 (1991)). The cells were cultured in Iscove's medium containing 10% fetal calf serum and 4 μg/ml dexamethasone on a layer of growth-arrested 3T3 mouse fibroblasts. Cells were plated in medium without the test compound and then given test compound in fresh medium, containing the test compound, every 48 hours. On the day of harvesting, the cultures were rinsed with 0.03% EDTA in PBS, to remove only the 3T3 fibroblasts, followed by incubation in 0.05% trypsin/0.03% EDTA. The cells were suspended, mixed vigorously to prepare a single cell suspension and counted in a hemocytometer.
Stock solutions of compounds were made up as 10^-2 M solutions in degassed 100% ethanol and stored at -20° C. in the dark. During experimental use, the solutions, which have been aliquoted, were brought to room temperature and used by diluting directly into complete medium to appropriate concentration.
The compounds were tested for the inhibition of proliferation of sebaceous cell growth in vitro at 10^-6, 10^-7 and 10^-8 M.
The results are summarized in Table III below as the amount of compound necessary to inhibit the proliferation of sebaceous cells by 50% (ED50) in nM as compared to a vehicle-treated culture.

[1] = Calcium liability (tolerance test in mice); conditions: mouse, in vivo, sc, daily subcutaneous administration for 4 consecutive days, 5 day treatment period, read-out: HTD (highest tolerated dose: dose which results in zero weight gain)
Source text: Profound changes in calcium homeostasis strongly affect the weight development of the animals. This parameter was used as a primary test for tolerance.
Mice (25-30 g body weight) received daily subcutaneous administrations of the vitamin D derivative for 4 consecutive days. Body weight was registered just before and at the end of a […] treatment period. The "highest tolerated dose" (HTD) is the dose which results in zero weight gain during this treatment period.

| Compound | EC50 (HL-60 cells) [nM] | IC50 (HaCaT cells) [nM] | IC50 (sebaceous cells) [nM] | MTD at 120 h [1] [mg/kg] |
| --- | --- | --- | --- | --- |
| C=C1/C(=C\C=C2/CCC[C@]3(C)C([C@H](C)CC#CC(C)(O)C(F)(F)F)=CC[C@@H]23)C[C@@H](O)C[C@@H]1O (stereo partly drawn) [1,25(R,S)-Dihydroxy-16-ene-23-yne-26-trifluoro-cholecalciferol] | 0.15 | 10 | 1 | 0.001 |
| C=C1CC[C@H](O)C/C1=C/C=C1\CCC[C@]2(C)C([C@H](C)CC#CC(C)(O)C(F)(F)F)=CC[C@@H]12 (stereo partly drawn) [25(R,S)-Hydroxy-16-ene-23-yne-26-trifluoro-cholecalciferol] | 160 | 650 |  | 0.6 |
| C=C1/C(=C\C=C2/CCC[C@]3(C)[C@@H]([C@H](C)CCCC(C)(C)O)CC[C@@H]23)C[C@@H](O)C[C@@H]1O [1,25-Dihydroxycholecalciferol, reference compound] | 8 |  |  |  |
| C[C@H](CC#CC(C)(O)C(F)(F)F)C1=CC[C@H]2/C(=C/C=C3C[C@@H](O)C[C@H](O)C3)CCC[C@]12C (stereo partly drawn) [1,25(R,S)-Dihydroxy-16-ene-23-yne-26-trifluoro-19-nor-cholecalciferol] | 0.37 | 5.1 |  | 0.002 |
| C=C1/C(=C\C=C2/CCC[C@]3(C)C([C@H](C)CC#CC(C)(O)C(F)(F)F)=CC[C@@H]23)C[C@@H](O)C[C@@H]1F (stereo partly drawn) [1α-fluoro-25(R,S)-hydroxy-16-ene-23-yne-26-trifluoro-cholecalciferol] | 3.7 | 11 |  | 0.02 |
